The text below walks through data of US20130130903A1, “Suppression of Foliar and Soilborne Pathogens” (priority 2003, published 2013).

Molecules are shown by their SMILES. Read-outs that look alike come from different tables or passages of the source.

The subject of experiment [1] is non-inoculated wheat. Nature of the experiment: Field yield of non-inoculated spring wheat after herbicide treatment. The class given is in vivo. The conditions noted are these: for Yield: 2002, non-inoculated, glyphosate on glyphosate res. wheat, Buctril/Harmony on sensitive wheat. The source says:
(§1) This example describes the response of glyphosate resistant and glyphosate sensitive spring wheat to inoculation with soil pathogens as judged by wheat yield. Inoculation simulates the green-bridge effect of dying weeds and volunteer in a standing wheat crop. The soil pathogens assessed were: Rhizoctonia solani isolate AG-8 and Gaeumannomyces graminis var. tritici. These pathogenic strains are prevalent in the Pacific Northwest and were isolated from the region. They have been maintained by the Department of Plant Pathology and USDA researchers at Washington State University.
(§2) Near isogenic lines (glyphosate resistant and glyphosate sensitive) of Westbred 926 and Bobwhite were seeded using a no-till drill at three different sites (Lind, Davenport and Pullman, Wash.).
(§3) To introduce the root pathogens into the wheat seed for distribution into the field, oat seeds, autoclaved and sterilized, were inoculated for each soilborne pathogen using isolated pathogen cultures. Oat seeds that were non-inoculated, but sterilized and autoclaved, served as a control. Following two weeks of pathogen growth, the inoculated oat seeds were dried down for 2 days and screened for potential contamination. To establish a green-bridge, a mixture of 15% barley and 20% oat inoculum seeds (by weight) were planted using a small plot no-till drill. One week after planting the introduced green-bridge, the wheat isolines were planted in rows adjacent to the barley green-bridge rows in a randomized, split-plot design, replicated in five randomized blocks. Inoculum treatment served as the main plot, and response to herbicides as the subplot factor.
This example describes the effect of herbicide treatment on spring wheat, averaged over all disease treatments, planted as described in Example 1. The appropriate herbicide was applied to each trial once the plants reached the 4-5 leaf stage with a custom built hand-pulled sprayer outfitted with a boom with a length of 16 feet with spray shields on the side to minimize drift. In this manner, an entire plot was treated at once with the appropriate herbicide rate. Entries that were resistant to glyphosate were treated with ROUNDUP® brand herbicide (0.63 kg/ha), available from Monsanto, St. Louis, Mo. Herbicide sensitive and resistant entries were treated with a common broadleaf herbicide treatment (Buctril/Harmony) or a no-spray control. Introduced green-bridge barley and any other weeds were manually removed 7-10 days after spray treatment to simulate the time required for ROUNDUP to take effect and maintained weed-free conditions to provide an accurate comparison to commercial weed management strategies needed to assess potential herbicide/disease interactions. […]

The subject of experiment [2] is Rhizoctonia solani isolate AG-8 and Gaeumannomyces graminis var. tritici (averaged over all fungal inoculation treatments). Description: Field yield of spring wheat after herbicide treatment, averaged over all fungal inoculation treatments. The class given is in vivo. To be noted: for Yield: glyphosate (ROUNDUP 0.63 kg/ha) on glyphosate res. wheat, Buctril/Harmony on sensitive wheat, 4-5 leaf stage.
Excerpt: as §1, §2, §3
(§4) This example describes the effect of herbicide treatment on spring wheat, averaged over all disease treatments, planted as described in Example 1. The appropriate herbicide was applied to each trial once the plants reached the 4-5 leaf stage with a custom built hand-pulled sprayer outfitted with a boom with a length of 16 feet with spray shields on the side to minimize drift. In this manner, an entire plot was treated at once with the appropriate herbicide rate. Entries that were resistant to glyphosate were treated with ROUNDUP® brand herbicide (0.63 kg/ha), available from Monsanto, St. Louis, Mo. Herbicide sensitive and resistant entries were treated with a common broadleaf herbicide treatment (Buctril/Harmony) or a no-spray control. Introduced green-bridge barley and any other weeds were manually removed 7-10 days after spray treatment to simulate the time required for ROUNDUP to take effect and maintained weed-free conditions to provide an accurate comparison to commercial weed management strategies needed to assess potential herbicide/disease interactions.

Experiment [3] deals with Ggt. The conditions noted are these: New Zealand studies; green-bridge effect on couch grass; cited from earlier work.
The subject of experiment [4] is soybean rust. Nature of the experiment: Suppression of soybean rust on glyphosate resistant soybean lines. Type of experiment: in vivo. The text has this:
This example describes the suppression of soybean rust using glyphosate treatment of glyphosate resistant soybean varieties.
Two different Roundup Ready soybean lines were used: Line 1 (purple flowers/grey pubescence) and Line 2 (white flowers/grey pubescence). Both lines are glyphosate resistant and have been classified as maturity group 3, with white or purple flowers and grey pubescence. The following treatments were used:
Treatment 1: No glyphosate spray before or after inoculation
Treatment 2: One application of glyphosate (48 oz./A) ([…] of active ingredient) three days before inoculation
Treatment 3: Twice the amount of glyphosate as in Treatment 2 (96 oz./A) ([…] of active ingredient) applied three days before inoculation
Treatment 4: One application of glyphosate (48 oz./A) three days before inoculation, and one application (48 oz./A) (1.5 kg/ha of active ingredient) when symptoms of soybean rust first appeared.
Treatment 5: No glyphosate spray before inoculation, and one application (48 oz./A) (1.5 kg/ha of active ingredient) when symptoms of soybean rust first appeared.

The subject of experiment [5] is stripe rust. Nature of the experiment: Bobwhite NILs under natural stripe rust infection, Pullman 2002. Type of experiment: in vivo, Puccinia striiformis. The conditions noted are these: for Yield: Pullman 2002, cultivar Bobwhite (res.).
Excerpt: as §1, §2, §3, §4
This example describes the effect of herbicides on natural stripe rust infection of NILs of Bobwhite with and without glyphosate tolerance. The wheat was seeded and inoculated with Rhizoctonia and Ggt as described in Example 1. The yield results from the Pullman site are recorded in Table 6.

Experiment [6] relates to R. solani. The conditions noted are these: cited from earlier work.

Take `O=C(O)CNCP(=O)(O)O` [glyphosate, N-phosphonomethylglycine]: the Yield is 29.1 bu/acre in experiment [1] (Davenport); 14.2 bu/acre in experiment [1] (Lind); 55.6 bu/acre in experiment [1] (Pullman); 28.9 bu/acre in experiment [2] (Davenport); 14.2 bu/acre in experiment [2] (Lind); 56.5 bu/acre in experiment [2] (Pullman). Moreover, the values for the Yield in experiment [5] (inoculation Ggt), in experiment [5] (inoculation None) and in experiment [5] (inoculation Rhizoctonia) were 49.0 bu/acre, 44.9 bu/acre and 40.0 bu/acre, respectively. Moreover, in experiment [1] (in the absence of additional pathogen inoculum), the “yield of glyphosate-resistant wheat lines” value is “increases yield”. Also, the “grain produced versus glyphosate sensitive NILs treated with Buctril/Harmony Extra or the no spray control” value in experiment [2] (RoundUp Ready spring wheat, regardless of disease treatment or location) is on record as “significantly (P=0.001) more grain”. For the same compound, in experiment [2] (Table 2, each trial), the “yield of glyphosate resistant wheat versus other treatments” value was “higher yields in each trial”. For the same compound, the “levels of infection of cereals with Ggt” value in experiment [3] was “increases the levels of infection with Ggt”. Besides, the “effect on soy rust” value in experiment [4] (treatments 2 and 3: 48 oz./A or 96 oz./A three days before inoculation) is given as “dose-dependent effect on soy rust”. Moreover, the “effect on soybean infected with soy rust” value in experiment [4] (treatments 4 and 5: 48 oz./A when symptoms of soybean rust first appeared) is “curative effect”. Further, the stripe rust symptoms entry in experiment [5] (Bobwhite cultivars under severe stripe rust conditions) is reported as “only moderate stripe rust symptoms”. In experiment [5] (regardless of what pathogen had been introduced), the “yields of glyphosate resistant Bobwhite NILs” value is recorded as “superior yields”. Also, the figures for the “grain yields of glyphosate-sensitive barley under R. solani” value in experiment [6] (glyphosate applied in the fall or three weeks prior to planting) and in experiment [6] (glyphosate applied three days before planting) were “no significant yield depression” and “significantly reduced grain yields”, respectively.
